The record followed here is US11512042B2, “Enamine compounds for absorbance of electromagnetic energy” (Commonwealth Scientific and Industrial Research Organisation, priority 2015, dated 2022).

A short description of the series: UV absorbance spectrum in solution (λmax, λcrit, extinction coefficients). The note with it: for λcrit: critical wavelength; for E (1%, 1 cm): mass extinction coefficient; for ε: molar extinction coefficient, in M-1 cm-1 (unit assumed). The series is classed as physicochemical. An excerpt: FIG. 1 is a graphical representation of the absorbance of compounds 142 and 143 measured in a 10 mm cuvette as 0.001% solutions in methanol (142 is the uppermost trace at peak point of approximately 330 nm); The synthesised benzoyl functionalised compounds and their spectroscopic properties can be seen in table 2 wherein; breakthrough denotes the value in nm where transmittance increases beyond 1%; steepness refers to the distance in nm over which transmittance increases from 1 to 80% (a higher value indicates a less steep transition from absorbing to transmitting and is generally unfavourable); and ^a denotes an average of multiple measurements. As a general comment, it can be noted that the benzoyl substituted compounds gave similar absorbance maxima to the corresponding trifluoroacetyl derivative.

Regarding `O=C(/C(=C\N(Cc1ccccc1)c1ccccc1)c1ccccc1)C(F)(F)F` [Compound 162], the λmax was 329 nm; the λcrit worked out at 365 nm; the “E (1%, 1 cm)” value is given as 620; the ε was found to be 23495.

As for `O=C(/C(=C\N1CCCc2ccccc21)c1ccccc1)C(F)(F)F` [Compound 163], the λmax is 354 nm; the λcrit was determined as 383 nm; the “E (1%, 1 cm)” value is reported as 811; the ε is reported as 26848.

For the compound `C=CCN(/C=C(\C(=O)C(F)(F)F)c1ccccc1)c1ccccc1` [Compound 172], the λmax is on record as 331 nm; the λcrit amounted to 365 nm; the “E (1%, 1 cm)” value turned out to be 673; the ε stood at 22290.

Turning to `CCN(/C=C(\C(=O)C(F)(F)F)c1ccccc1)c1ccccc1C` [Compound 177], the λmax was found to be 320 nm; the λcrit is 354 nm; the “E (1%, 1 cm)” value stood at 707; the ε is 23543.

Take `CCN(/C=C(\C(=O)C(F)(F)F)c1ccccc1)c1cccc(C)c1` [Compound 186]: the λmax came to 331 nm; the λcrit worked out at 367 nm; the “E (1%, 1 cm)” value turned out to be 709; the ε was 23605.

For the compound `CCN(/C=C(\C(=O)C(F)(F)F)c1ccccc1)c1cccc2ccccc12` [Compound 189], the λmax was 324 nm; the λcrit was 357 nm; the “E (1%, 1 cm)” value came out at 634; the ε turned out to be 23400.

For the compound `CCN(/C=C(\C(=O)C(F)(F)C(F)(F)C(F)(F)C(=O)/C(=C\N(CC)c1ccccc1)c1ccccc1)c1ccccc1)c1ccccc1` [Compound 190], the λmax worked out at 330 nm; the λcrit was 370 nm; the “E (1%, 1 cm)” value is recorded as 616; the ε came to 40027.

On to `O=C(/C(=C\N1CCCCC1)c1ccccc1)C(F)(F)F` [Compound 192], for which the λmax was determined as 322 nm; the λcrit was 353 nm; the “E (1%, 1 cm)” value is 884; the ε was 25028.

With `O=C(/C(=C\N1CCCC1)c1ccccc1)C(F)(F)F` [Compound 193], the λmax is listed as 323 nm; the λcrit was 354 nm; the “E (1%, 1 cm)” value turned out to be 769; the ε turned out to be 20673.

With `O=C(/C(=C\N1CCc2ccccc2C1)c1ccccc1)C(F)(F)F` [Compound 194], the λmax is recorded as 321 nm; the λcrit is on record as 352 nm; the “E (1%, 1 cm)” value worked out at 687; the ε was 22743.

Turning to `O=C(/C(=C\N1CCN(/C=C(/C(=O)C(F)(F)F)c2ccccc2)CC1)c1ccccc1)C(F)(F)F` [Compound 195], the λmax is recorded as 339 nm; the λcrit was determined as 360 nm; the “E (1%, 1 cm)” value is on record as 689; the ε came to 33248.

As for `CCCN(/C=C(\C(=O)C(F)(F)F)c1ccccc1)c1ccc(N(/C=C(\C(=O)C(F)(F)F)c2ccccc2)CCC)cc1` [Compound 196], the λmax is 344 nm; the λcrit turned out to be 378 nm; the “E (1%, 1 cm)” value is reported as 714; the ε worked out at 41997.

As for `CCOc1ccc(/C(=C/N(CC)c2ccccc2)C(=O)C(F)(F)F)cc1` [Compound 197], the λmax amounted to 335 nm; the λcrit was found to be 369 nm; the “E (1%, 1 cm)” value was found to be 1166; the ε was found to be 42359.

Regarding `O=C(/C(=C\N1CCc2cc(F)ccc21)c1ccccc1)C(F)(F)F` [Compound 198], the λmax worked out at 368 nm; the λcrit is 389 nm; the “E (1%, 1 cm)” value stood at 890; the ε came to 29804.

For `Cc1cccc2c1N(/C=C(\C(=O)C(F)(F)F)c1ccccc1)CC2` [Compound 199], the λmax is reported as 360 nm; the λcrit came out at 386 nm; the “E (1%, 1 cm)” value is reported as 975; the ε turned out to be 32273.

On to `O=C(/C(=C\N1CCc2ccc([N+](=O)[O-])cc21)c1ccccc1)C(F)(F)F` [Compound 202], for which the λmax was 355 nm; the λcrit was determined as 387 nm; the “E (1%, 1 cm)” value worked out at 903; the ε was 32693.

On to `Cc1ccc2c(c1)CCN2/C=C(\C(=O)C(F)(F)F)c1ccccc1` [Compound 205], for which the λmax was 371 nm; the λcrit came out at 391 nm; the “E (1%, 1 cm)” value is listed as 1108; the ε is 36692.

Regarding `O=C(/C(=C\N1CCc2cc([N+](=O)[O-])ccc21)c1ccccc1)C(F)(F)F` [Compound 206], the λmax was found to be 398 nm; the λcrit was determined as 396 nm; the “E (1%, 1 cm)” value came to 1390; the ε was determined as 50315.

For the compound `O=C(/C(=C\N1CCOCC1)c1ccccc1)C(F)(F)F` [Compound 209], the λmax is reported as 320 nm; the λcrit is given as 351 nm; the “E (1%, 1 cm)” value was 855; the ε turned out to be 24356.

For the compound `O=C(/C(=C\N1CCCN(/C=C(/C(=O)C(F)(F)F)c2ccccc2)CC1)c1ccccc1)C(F)(F)F` [Compound 210], the λmax came to 326 nm; the λcrit worked out at 356 nm; the “E (1%, 1 cm)” value is 819; the ε was 40611.

With `CC1CCc2ccccc2N1/C=C(\C(=O)C(F)(F)F)c1ccccc1` (stereo not drawn) [Compound 211], the λmax came to 350 nm; the λcrit is on record as 380 nm; the “E (1%, 1 cm)” value amounted to 837; the ε was found to be 28907.

Regarding `O=C(/C(=C\N1CCc2cc(Br)ccc21)c1ccccc1)C(F)(F)F` [Compound 214], the λmax was 371 nm; the λcrit came to 390 nm; the “E (1%, 1 cm)” value was found to be 994; the ε is 39265.

For `CCN(/C=C(\C(=O)C(F)(F)F)c1ccccc1)c1ccc(Br)cc1` [Compound 216], the λmax is 332 nm; the λcrit was found to be 367 nm; the “E (1%, 1 cm)” value turned out to be 651; the ε was 25865.

Regarding `O=C(/C(=C\N1CCCCc2ccccc21)c1ccccc1)C(F)(F)F` [Compound 217], the λmax came to 324 nm; the λcrit is 359 nm; the “E (1%, 1 cm)” value is reported as 843; the ε was determined as 29114.

In the case of `CCN(CCOC(=O)c1ccc2c(c1)CCN2/C=C(\C(=O)C(F)(F)F)c1ccccc1)C(=O)OC(C)(C)C` [Compound 218], the λmax is given as 375 nm; the λcrit came out at 391 nm; the “E (1%, 1 cm)” value came out at 833; the ε is reported as 44357.

Regarding `CN(/C=C(\C(=O)C(F)(F)F)c1ccccc1)c1ccc([N+](=O)[O-])cc1` [Compound 219], the λmax was found to be 376 nm; the λcrit worked out at 391 nm; the “E (1%, 1 cm)” value was 710; the ε is on record as 24860.

With `CCCCC(CC)COc1ccc(N(/C=C(\C(=O)C(F)(F)F)c2ccccc2)CC)cc1` (stereo not drawn) [Compound 220], the λmax is 332 nm; the λcrit is listed as 371 nm; the “E (1%, 1 cm)” value was determined as 532; the ε is reported as 23819.
